For one data set, the target named is T1, CDK5/GST-p25 (Homo sapiens, UniProt Q00535).
T1 construct: The final construct, encoding for full-length human CDK5; made in house; host or cells: Sf21 insect cells (baculovirus co-infection)
In words: Inhibition of CDK5/GST-p25 kinase activity (ELISA with time-resolved fluorescence readout). The class given is biochemical. The essentials: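 Sf21-coexpressed full-length human CDK5 with GST-p25 (p35 aa 108-307), glutathione-purified, at 2 ng/ml was reacted for 20 min at 37 °C on plate-coated GST-Rb(773-928). Buffer was 20 mM HEPES pH 7.2, 10 µM ATP, 10 mM MgCl2 and 2.5% DMSO. Phospho-Rb Ser-780 was detected by Eu-labelled antibody TRF, and IC50 curves were fitted.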
A general note: ELISA stands for enzyme-linked immunosorbent assay.

Another data set addresses T2, His6-GSK-3β (Homo sapiens, UniProt P49841).
T2 construct: made in house; host or cells: Sf21 insect cells (baculovirus)
In words: Inhibition of His6-GSK-3β kinase activity (ELISA-based format, time-resolved fluorescence readout). The conditions noted are these: read-out: GSK3β IC50. The class given is biochemical. In outline:
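N-terminal His6-tagged full-length human GSK-3β (aa 2-419) expressed in Sf21 cells, 200 ng/ml, phosphorylating plate-coated GST-Rb with 20 μM ATP in pH 7.2 HEPES buffer, 30 min at 37° C. Phospho-Rb (Ser-780) detected by antibody plus Eu-labelled secondary, time-resolved fluorescence; IC50 from curves.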

Each structure is given as a SMILES string. pIC50: −log10 of the molar value. Structures can show the parent of a compound that is named as a salt. Where two headings read alike, the source gives them in different places.

T2 sequence (P49841 2-419): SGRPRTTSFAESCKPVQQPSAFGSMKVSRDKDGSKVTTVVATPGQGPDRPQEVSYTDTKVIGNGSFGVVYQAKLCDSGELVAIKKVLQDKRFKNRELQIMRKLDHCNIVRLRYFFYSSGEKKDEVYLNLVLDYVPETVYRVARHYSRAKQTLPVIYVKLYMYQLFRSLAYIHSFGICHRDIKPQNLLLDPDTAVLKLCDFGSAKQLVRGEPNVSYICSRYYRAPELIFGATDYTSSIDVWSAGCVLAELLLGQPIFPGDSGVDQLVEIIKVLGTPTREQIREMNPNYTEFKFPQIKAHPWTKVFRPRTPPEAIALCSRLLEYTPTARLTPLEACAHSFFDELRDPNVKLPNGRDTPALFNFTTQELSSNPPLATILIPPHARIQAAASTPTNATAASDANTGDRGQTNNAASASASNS
T1 sequence (Q00535 whole entry): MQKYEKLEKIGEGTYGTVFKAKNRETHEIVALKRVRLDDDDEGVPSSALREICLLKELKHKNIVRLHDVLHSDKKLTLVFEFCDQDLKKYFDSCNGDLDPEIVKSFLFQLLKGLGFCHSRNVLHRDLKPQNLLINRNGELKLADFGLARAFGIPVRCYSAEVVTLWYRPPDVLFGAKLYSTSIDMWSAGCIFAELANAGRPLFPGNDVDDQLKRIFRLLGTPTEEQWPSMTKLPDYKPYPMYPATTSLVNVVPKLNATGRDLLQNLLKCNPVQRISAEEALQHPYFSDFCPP
T1 sequence (Q15078 108-307 partner limits assumed): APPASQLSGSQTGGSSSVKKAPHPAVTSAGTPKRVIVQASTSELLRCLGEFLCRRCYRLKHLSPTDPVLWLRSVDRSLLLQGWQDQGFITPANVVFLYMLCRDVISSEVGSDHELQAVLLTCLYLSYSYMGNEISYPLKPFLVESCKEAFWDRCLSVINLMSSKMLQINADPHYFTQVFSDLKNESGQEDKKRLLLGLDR

Take `CC(C)Nc1nc(C2C(=O)Nc3ccccc32)c2cn(C3CCCC3)nc2n1` (centres unmarked) [Example 245, 3-(2-Cyclopentyl-6-isopropylamino-2H-pyrazolo[3,4-d]pyrimidin-4-yl)-1,3-dihydro-indol-2-one]: the melting point – broadly, the temperature, or range, at which the solid turns liquid – fell in the range of 303 to 305 °C. Besides, the pIC50 (commonly the negative decadic logarithm of the IC50, by convention in mol/L) on CDK5/GST-p25 (class symbols) was less than 5.00. Besides, the pIC50 at His6-GSK-3β (numeric bounds) is less than 5.52.

For `CCCn1cc2c(C3C(=O)Nc4ccc(Br)cc43)nc(NCCCN3CCOCC3)nc2n1` (centres unmarked) [Example 203, 5-Bromo-3-[6-(3-morpholin-4-yl-propylamino)-2-propyl-2H-pyrazolo [3,4-d]pyrimidin-4-yl]-1,3-dihydro-indol-2-one], the melting point lay within 298 to 303 °C. This molecule also had a pIC50 against CDK5/GST-p25 (class symbols) greater than 6.52. The pIC50 on His6-GSK-3β (class symbols) was greater than 6.52.

The molecule `CCCn1cc2c(C3C(=O)Nc4ccc(S(=O)(=O)N(C)C)cc43)nc(Cl)nc2n1` (centres unmarked) [Example 204, 3-(6-Chloro-2-propyl-2H-pyrazolo [3,4-d]pyrimidin-4-yl)-2-oxo-2,3-dihydro-1H-indole-5-sulfonic acid dimethylamide] displayed a melting point greater than 300 °C. Besides, the pIC50 against CDK5/GST-p25 (class symbols) is 5.52 to 6.52. Besides, the negative-log IC50 (pIC50) at His6-GSK-3β (numeric bounds) was less than 5.52.

Molecule `N#Cc1ccc2c(c1)C(c1ncnc3c1cnn3C1CCCC1)C(=O)N2` (centres unmarked) [Example 55, 3-(1-Cyclopentyl-1H-pyrazolo[3,4-d]pyrimidin-4-yl)-2-oxo-2,3-dihydro-1H-indole-5-carbonitrile] registered a melting point greater than 300 °C. Also, the pIC50 against CDK5/GST-p25 (class symbols) is less than 5.00. Besides, the negative logarithm of the IC50 (pIC50) on His6-GSK-3β (class symbols) is 5.52 to 6.52.

For `O=C1Nc2ccccc2C1c1nc(NCCc2ccccn2)nc2nn(C3CCCC3)cc12` (centres unmarked) [Example 242, 3-[2-Cyclopentyl-6-(2-pyridin-2-yl-ethylamino)-2H-pyrazolo[3,4-d]pyrimidin-4-yl]-1,3-dihydro-indol-2-one], the melting point was in the range of 246 to 248 °C. In addition, on CDK5/GST-p25, the inhibition (commonly the share of the control response that was lost under treatment) at 10 µM came to 43%. The negative-log IC50 (pIC50) on His6-GSK-3β (class symbols) is 5.52 to 6.52.

As for `CCCn1ncc2c(C3C(=O)Nc4ccc(Cl)cc43)ncnc21` (centres unmarked) [Example 95, 5-Chloro-3-(1-propyl-2H-pyrazolo[3,4-d]pyrimidin-4-yl)-1,3-dihydro-indol-2-one], the melting point is 293 to 297 °C. This molecule gave a pIC50 at CDK5/GST-p25 (numeric bounds) of less than 5.52. Moreover, the pIC50 on His6-GSK-3β (class symbols) is less than 5.00.

`CCCn1cc2c(C3C(=O)Nc4ccc(C#N)cc43)nc(NCCc3cccnc3)nc2n1` (centres unmarked) [Example 185, 2-Oxo-3-[2-propyl-6-(2-pyridin-3-yl-ethylamino)-2H-pyrazolo [3,4-d]pyrimidin-4-yl]-2,3-dihydro-1H-indole-5-carbonitrile] returned a melting point of 302 to 305 °C. The molecule further showed a pIC50 on CDK5/GST-p25 (class symbols) greater than 6.52. Besides, the pIC50 on His6-GSK-3β (class symbols) is greater than 6.52.

The molecule `CCCn1cc2c(C3C(=O)Nc4ccc(F)cc43)ncnc2n1` (centres unmarked) [Example 100] returned a melting point of 288 to 292 °C. The pIC50 at CDK5/GST-p25 (class symbols) was greater than 6.52. Also, the negative-log IC50 (pIC50) at His6-GSK-3β (class symbols) is 5.52 to 6.52.

The molecule `C[C@H](O)CNc1nc(C2C(=O)Nc3ccc(Br)cc32)c2cn(C)nc2n1` (stereo partly drawn) [Example 304, 5-Bromo-3-[6-(2-(S)-hydroxypropylamino)-2-methyl-2H-pyrazolo [3,4-d]pyrimidin-4-yl]-1,3-dihydro-indol-2-one] returned a melting point of 338 to 340 °C. This molecule also had a pIC50 against CDK5/GST-p25 (class symbols) greater than 6.52. Moreover, the pIC50 at His6-GSK-3β (class symbols) was greater than 6.52.

In turn, `Cn1cc2c(C3C(=O)Nc4ccc(Br)cc43)nc(NCCN)nc2n1` (centres unmarked) [Example 303, 3-[6-(2-Amino-ethylamino)-2-methyl-2H-pyrazolo [3,4-d]pyrimidin-4-yl]-5-bromo-1,3-dihydro-indol-2-one] came in with a melting point of 260 to 262 °C. Also, the negative logarithm of the IC50 (pIC50) at CDK5/GST-p25 (class symbols) was greater than 6.52. The pIC50 on His6-GSK-3β (class symbols) is 5.52 to 6.52.

Molecule `CCCn1cc2c(C3C(=O)Nc4ccc(Br)cc43)nc(NC[C@@H](C)N)nc2n1` (stereo partly drawn) [Example 369, 3-[6-(2-(R)-Amino-propylamino)-2-propyl-2H-pyrazolo[3,4-d]pyrimidin-4-yl]-5-bromo-1,3-dihydro-indol-2-one] registered a melting point of 247 to 250 °C. Also, the pIC50 on CDK5/GST-p25 (class symbols) is 5.52 to 6.52. For the same molecule, the pIC50 on His6-GSK-3β (class symbols) is greater than 6.52.

With `COCCn1cc2c(C3C(=O)Nc4ccc(Br)cc43)nc(NC[C@H](C)O)nc2n1` (stereo partly drawn) [Example 230, 5-Bromo-3-[6((S)-2-hydroxy-propylamino)-2-(2-methoxy-ethyl)-2H-pyrazolo [3,4-d]pyrimidin-4-yl]-1,3-dihydro-indol-2-one], the melting point is greater than 300 °C. This molecule also gave a pIC50 against CDK5/GST-p25 (class symbols) greater than 6.52. Also, the pIC50 on His6-GSK-3β (class symbols) is greater than 6.52.

`CCOCCn1cc2c(C3C(=O)Nc4ccc(Br)cc43)nc(NC[C@H](C)O)nc2n1` (stereo partly drawn) [Example 238, 5-Bromo-3-[2-(2-ethoxy-ethyl)-6-((S)-2-hydroxy-propylamno)-2H-pyrazolo[3,4-d]pyrimidin-4-yl]-1,3-dihydro-indol-2-one] showed a melting point of 297 to 299 °C. For the same molecule, the pIC50 against CDK5/GST-p25 (class symbols) was greater than 6.52. Besides, at His6-GSK-3β (class symbols), the pIC50 was greater than 6.52.

`CNCCCNc1nc(C2C(=O)Nc3ccc(Br)cc32)c2cn(C)nc2n1` (centres unmarked) (as salt: hydrochloride) [Example 306, 5-Bromo-3-[2-methyl-6-(3-methylamino-propylamino)-2H-pyrazolo [3,4-d]pyrimidin-4-yl]-1,3-dihydro-indol-2-one] yielded a melting point of 271 to 273 °C.

`COCCn1cc2c(C3C(=O)Nc4ccc(Br)cc43)nc(NCCC3CCNCC3)nc2n1` (centres unmarked) (as salt: hydrochloride) [Example 227, 5-Bromo-3-[2-(2-methoxy-ethyl)-6-(2-piperidin-4-yl-ethylamino)-2H-pyrazolo[3,4-d]pyrimidin-4-yl]-1,3-dihydro-indol-2-one] showed a melting point of 248 to 251 °C.

The molecule `CCCn1cc2c(C3(F)C(=O)Nc4ccc(Br)cc43)ncnc2n1` (centres unmarked) [Example 383, 5-Bromo-3-fluoro-3-(2-propyl-2H-pyrazolo[3,4-d]pyrimidin-4-yl)-1,3-dihydroindol-2-one] gave a melting point of 184 to 186 °C.

The molecule `Cn1cc2c(C3C(=O)Nc4ccc(Br)cc43)nc(Cl)nc2n1` (centres unmarked) [Example 300, 5-Bromo-3-(6-chloro-2-methyl-2H-pyrazolo[3,4-d]pyrimidin-4-yl)-1,3-dihydro-indol-2-one] returned a melting point greater than 300 °C.

In turn, `O=C1Nc2cc(Cl)ccc2C1c1ncnc2nn(C3CCCCC3)cc12` (centres unmarked) [Example 51, 6-Chloro-3-(2-cyclohexyl-2H-pyrazolo[3,4-d]pyrimidin-4-yl)-1,3-dihydro-indol-2-one] came in with a melting point of 299 to 303 °C. In addition, the pIC50 against CDK5/GST-p25 (numeric bounds) is less than 5.52.

`CNCCCNc1nc(C2C(=O)Nc3ccc(C(F)(F)F)cc32)c2cn(C3CCCC3)nc2n1` (centres unmarked) (as salt: hydrochloride) [Example 253, 3-[2-Cyclopentyl-6-(3-methylamino-propylamino)-2H-pyrazolo [3,4-d]pyrimidin-4-yl]-5-trifluoromethyl-1,3-dihydro-indol-2-one hydrochloride salt] gave a melting point of 260 to 262 °C.

With `COC[C@H]1C[C@@H](n2cnc3c(C4C(=O)Nc5ccc(C#N)cc54)ncnc32)[C@H](O)[C@@H]1O` (stereo partly drawn) [Example 29, 3-[9-((1R,2S,3R,4R)-2,3-Dihydroxy-4-methoxymethyl-cyclopentyl)-9H-purin-6-yl]-2-oxo-2,3-dihydro-1H-indole-5-carbonitrile], the melting point was 230 to 236 °C (dec.).

The values above are taken from patent US8354414B2, “Substituted bicyclic pyrimidines” (Cephalon, Inc, priority 2006, dated 2013).
